≈ marks a conversion by molar mass, not a printed value. Like-named read-outs stand apart in the source and are kept apart here.
How the values were obtained:
E. coli 2668 = test: MIC against E. coli 2668; format: cell-based; conditions: Table 2, E. coli 2668, OXA-48
Description: (§1) Without limitation, the present cephem compounds alone, or in combination with one or more β-lactamase inhibitors, may provide improved antibacterial efficacy, particularly in antibiotic-resistant bacterial strains. It is believed that the present compounds may be structurally different from known compounds and, as a result, may be more basic in nature. It is an advantage that the present compounds may extend the spectrum of effective bacterial compounds, particularly against previously-resistant bacteria (e.g. ESKAPE organisms), and/or gram negative bacteria, without significant side effects. In a preferred embodiment, the present cephem compound may comprise reference compound ceftazidime, which may be used alone, or in combination with one or more β-lactamase inhibitors, such as NXL-104. As shown, the foregoing composition was tested for minimum inhibitory concentration (MIC, μg/mL) against bacteria listed in Tables 2-3.

S. pneumoniae 2389 = test: MIC against S. pneumoniae 2389; format: cell-based; conditions: Table 2, S. pneumoniae 2389, Pen R
Description: as §1

E. cloacae 552 = test: MIC against E. cloacae 552; format: cell-based; conditions: Table 2, E. cloacae 552, Caz S, IMP S
Description: as §1

[1] = tested on: S. pneumoniae ATCC 700673; test: MIC against S. pneumoniae ATCC 700673; format: cell-based; conditions: Table 2, S. pneumoniae ATCC 700673, Pen R
Description: as §1

S. aureus3137 = test: MIC against S. aureus3137; format: cell-based, S. aureus; conditions: Table 2, S. aureus3137, MSSA
Description: as §1

S. aureus 3147 = test: MIC against S. aureus 3147; format: cell-based; conditions: Table 2, S. aureus 3147, MSSA
Description: as §1

K. pneumoniae 4088 = test: MIC against K. pneumoniae 4088; format: cell-based; conditions: Table 3, K. pneumoniae 4088, KPC-3
Method: (§2) As shown, the foregoing composition was tested for minimum inhibitory concentration (MIC, μg/mL) against bacteria listed in Tables 2-3.

E. cloacae 2710 = test: MIC against E. cloacae 2710; format: cell-based; conditions: Table 3, E. cloacae 2710, KPC-3, VIM-1
Method: as §2

K. pneumoniae 2690 = test: MIC against K. pneumoniae 2690; format: cell-based; conditions: Table 3, K. pneumoniae 2690, KPC-2
Method: as §2

S. pneumoniae 2405 = test: MIC against S. pneumoniae 2405; format: cell-based; conditions: Table 2, S. pneumoniae 2405, Pen S
Description: as §1

S. pneumoniae 2406 = test: MIC against S. pneumoniae 2406; format: cell-based; conditions: Table 2, S. pneumoniae 2406, Pen S
Description: as §1

P. aeruginosa 2686 = test: MIC against P. aeruginosa 2686; format: cell-based; conditions: Table 3, P. aeruginosa 2686, KPC-2
Method: as §2

S. aureus 3132 = test: MIC against S. aureus 3132; format: cell-based; conditions: Table 2, S. aureus 3132, MSSA
Description: as §1

C. freundii 15 = test: MIC against C. freundii 15; format: cell-based; conditions: Table 2, C. freundii 15, Caz R, IMP S
Description: as §1

K. baumanii 2579 = test: MIC against K. baumanii 2579; format: cell-based; conditions: Table 2, K. baumanii 2579, OXA-25
Description: as §1

E. cloacae 551 = test: MIC against E. cloacae 551; format: cell-based; conditions: Table 2, E. cloacae 551, Caz R, IMP S
Description: as §1

K. baumanii 4094 = test: MIC against K. baumanii 4094; format: cell-based; conditions: Table 2, K. baumanii 4094, OXA-51
Description: as §1

E. cloacae 2704 = test: MIC against E. cloacae 2704; format: cell-based; conditions: Table 2, E. cloacae 2704, P99
Description: as §1

S. pneumoniae 2493 = test: MIC against S. pneumoniae 2493; format: cell-based; conditions: Table 2, S. pneumoniae 2493, Pen R
Description: as §1

K. baumanii 4095 = test: MIC against K. baumanii 4095; format: cell-based; conditions: Table 2, K. baumanii 4095, OXA-48
Description: as §1

E. cloacae 2705 = test: MIC against E. cloacae 2705; format: cell-based; conditions: Table 3, E. cloacae 2705, VIM-1, KPC-3type
Method: as §2

P. aeruginosa 2573 = test: MIC against P. aeruginosa 2573; format: cell-based; conditions: Table 2, P. aeruginosa 2573, OXA-10 (Class D)
Description: as §1

S. pneumoniae ATCC 6301 = test: MIC against S. pneumoniae ATCC 6301; format: cell-based; conditions: Table 2, S. pneumoniae ATCC 6301, Pen S
Description: as §1

E. coli 2666 = test: MIC against E. coli 2666; format: cell-based; conditions: Table 3, E. coli 2666, KPC-2
Method: as §2

[2] = Escherichia coli, alone, read-out: MIC
[3] = Streptococcus pneumoniae, alone, read-out: MIC
[4] = Enterobacter cloacae, alone, read-out: MIC
[5] = Staphylococcus aureus, alone, read-out: MIC
[6] = Klebsiella pneumoniae, alone, read-out: MIC
[7] = Pseudomonas aeruginosa, alone, read-out: MIC

MIC (E. coli 2668; [2]): 0.5 µg/mL
MIC (E. coli 2668; in combination with NXL-104): 0.12 µg/mL
MIC (S. pneumoniae 2389; [3]): 2 µg/mL
MIC (S. pneumoniae 2389; in combination with NXL-104): 2.00 µg/mL
MIC (E. cloacae 552; [4]): 0.12 µg/mL
MIC (E. cloacae 552; in combination with NXL-104): 0.25 µg/mL
MIC ([1]; Streptococcus pneumoniae, ATCC700673, alone, read-out: MIC): 2 µg/mL
MIC ([1]; in combination with NXL-104): 2.00 µg/mL
MIC (S. aureus3137; [5]): 32 µg/mL
MIC (S. aureus3137; in combination with NXL-104): 8.00 µg/mL
MIC (S. aureus 3147; [5]): 4 µg/mL
MIC (S. aureus 3147; in combination with NXL-104): 4.00 µg/mL
MIC (K. pneumoniae 4088; [6]): > 32 µg/mL
MIC (K. pneumoniae 4088; in combination with NXL-104): 2 µg/mL
MIC (E. cloacae 2710; [4]): > 32 µg/mL
MIC (E. cloacae 2710; in combination with NXL-104): >32 µg/mL
MIC (K. pneumoniae 2690; [6]): 16 µg/mL (≈ 22.6 µM)
MIC (K. pneumoniae 2690; in combination with NXL-104): 1 µg/mL
MIC (S. pneumoniae 2405; [3]): ≤ 0.06 µg/mL
MIC (S. pneumoniae 2405; in combination with NXL-104): ≤0.06 µg/mL
MIC (S. pneumoniae 2406; [3]): ≤ 0.06 µg/mL
MIC (S. pneumoniae 2406; in combination with NXL-104): ≤0.06 µg/mL
MIC (P. aeruginosa 2686; [7]): 32 µg/mL (≈ 45.2 µM)
MIC (P. aeruginosa 2686; in combination with NXL-104): 8 µg/mL
MIC (S. aureus 3132; [5]): 4 µg/mL
MIC (S. aureus 3132; in combination with NXL-104): 4.00 µg/mL
MIC (C. freundii 15; Citrobacter freundii, alone, read-out: MIC): 8 µg/mL
MIC (C. freundii 15; in combination with NXL-104): 0.50 µg/mL
MIC (K. baumanii 2579; alone, read-out: MIC): > 32 µg/mL
MIC (K. baumanii 2579; in combination with NXL-104): 16.00 µg/mL
MIC (E. cloacae 551; [4]): 16 µg/mL
MIC (E. cloacae 551; in combination with NXL-104): 1.00 µg/mL
MIC (K. baumanii 4094; alone, read-out: MIC): 16 µg/mL
MIC (K. baumanii 4094; in combination with NXL-104): 8.00 µg/mL
MIC (E. cloacae 2704; [4]): 32 µg/mL
MIC (E. cloacae 2704; in combination with NXL-104): 1.00 µg/mL
MIC (S. pneumoniae 2493; [3]): 2 µg/mL
MIC (S. pneumoniae 2493; in combination with NXL-104): 2.00 µg/mL
MIC (K. baumanii 4095; alone, read-out: MIC): 0.12 µg/mL
MIC (K. baumanii 4095; in combination with NXL-104): 0.25 µg/mL
MIC (E. cloacae 2705; [4]): > 32 µg/mL
MIC (E. cloacae 2705; in combination with NXL-104): >32 µg/mL
MIC (P. aeruginosa 2573; [7]): 2 µg/mL
MIC (P. aeruginosa 2573; in combination with NXL-104): 2.00 µg/mL
MIC (S. pneumoniae ATCC 6301; Streptococcus pneumoniae, ATCC6301, alone, read-out: MIC): ≤ 0.06 µg/mL
MIC (S. pneumoniae ATCC 6301; in combination with NXL-104): ≤0.06 µg/mL
MIC (E. coli 2666; [2]): 16 µg/mL (≈ 22.6 µM)
MIC (E. coli 2666; in combination with NXL-104): 1 µg/mL
Compound: CC(C)(O/N=C(\C(=O)N[C@@H]1C(=O)N2C(C(=O)[O-])=C(C[n+]3ccc4c(ccn4Cc4cc(C(=N)N)co4)c3)CS[C@H]12)c1csc(N)n1)C(=O)O [Example 6, (6R,7R)-7-{[(2Z)-2-(2-Amino-1,3-thiazol-4-yl)-2-{[(2-carboxypropan-2-yl)oxy]imino}acetyl]amino}-3-({1-[(4-carbamimidoylfuran-2-yl)methyl]-1H-pyrrolo[3,2-c]pyridin-5-ium-5-yl}methyl)-8-oxo-5-thia-1-azabicyclo[4.2.0]oct-2-ene-2-carboxylate]
